Experimental data taken from patent publication US20220386606A1, “SPECIFICALLY SUBSTITUTED 3-PHENYL-5-SPIROCYCLOPENTYL-3-PYRROLIN-2-ONES AND THEIR USE AS HERBICIDES” (Bayer Aktiengesellschaft, priority 2019, published 2022).

Legend:
ALOMY [1] = assay: Post-emergence herbicidal action against ALOMY; format: in vivo, Alopecurus myosuroides; details: 80 g/ha, visual assessment after about 3 weeks
Experimental: (§1) Seeds of monocotyledonous and dicotyledonous weed and crop plants are laid out in sandy loam soil in wood-fiber pots, covered with soil and cultivated in a greenhouse under good growth conditions. 2 to 3 weeks after sowing, the test plants are treated at the one-leaf stage. The compounds of the invention, formulated in the form of wettable powders (WP) or as emulsion concentrates (EC), are then sprayed onto the green parts of the plants as aqueous suspension or emulsion at a water application rate equating to 600 to 800 l/ha with addition of 0.2% wetting agent. After the test plants have been left to stand in the greenhouse under optimal growth conditions for about 3 weeks, the action of the preparations is assessed visually in comparison to untreated controls (herbicidal action in percent (%): 100% activity=the plants have died, 0% activity=like control plants).

LOLRI [2] = assay: Post-emergence herbicidal action against LOLRI; format: in vivo, Lolium rigidum; details: 80 g/ha, visual assessment about 3 weeks after treatment vs untreated controls
Experimental: as §1

AVEFA [3] = assay: Post-emergence herbicidal action against AVEFA; format: in vivo, Avena fatua; details: 80 g/ha, visual assessment after about 3 weeks
Experimental: as §1

AVEFA [4] = assay: Pre-emergence herbicidal action against AVEFA; format: in vivo, Avena fatua; details: 320 g/ha, scored visually after 3 weeks vs untreated controls
Excerpt: (§2) Seeds of monocotyledonous and dicotyledonous weed plants and crop plants are laid out in sandy loam soil in wood-fiber pots and covered with soil. The compounds of the invention, formulated in the form of wettable powders (WP) or as emulsion concentrates (EC), are then applied to the surface of the covering soil as aqueous suspension or emulsion at a water application rate equating to 600 to 800 L/ha with addition of 0.2% wetting agent.
(§3) After the treatment, the pots are placed in a greenhouse and kept under good growth conditions for the trial plants. The damage to the test plants is scored visually after a test period of 3 weeks by comparison with untreated controls (herbicidal activity in percent (%): 100% activity=the plants have died, 0% activity=like control plants).

DIGSA [5] = assay: Post-emergence herbicidal action against DIGSA; format: in vivo, Digitaria sanguinalis; details: 80 g/ha, visual assessment about 3 weeks after treatment vs untreated controls
Experimental: as §1

SETVI [6] = assay: Pre-emergence herbicidal action against SETVI; format: in vivo, Setaria viridis; details: 320 g/ha, scored visually after 3 weeks vs untreated controls
Excerpt: as §2, §3

ECHCG [7] = assay: Post-emergence herbicidal action against ECHCG; format: in vivo, Echinochloa crus-galli; details: 80 g/ha, visual assessment about 3 weeks after treatment vs untreated controls
Experimental: as §1

SETVI [8] = assay: Post-emergence herbicidal action against SETVI; format: in vivo, Setaria viridis; details: 80 g/ha, visual assessment about 3 weeks after treatment vs untreated controls
Experimental: as §1

DIGSA [9] = assay: Pre-emergence herbicidal action against DIGSA; format: in vivo, Digitaria sanguinalis; details: 320 g/ha, scored visually after 3 weeks vs untreated controls
Excerpt: as §2, §3

LOLRI [10] = assay: Pre-emergence herbicidal action against LOLRI (Table 8, titled post-emergence at 320 g/ha); format: in vivo, Lolium rigidum; details: table stands in the pre-emergence section
Excerpt: as §2, §3

ECHCG [11] = assay: Pre-emergence herbicidal action against ECHCG; format: in vivo, Echinochloa crus-galli; details: 320 g/ha, scored visually after 3 weeks vs untreated controls
Excerpt: as §2, §3

ALOMY [12] = assay: Pre-emergence herbicidal action against ALOMY; format: in vivo, Alopecurus myosuroides; details: 320 g/ha, scored visually after 3 weeks vs untreated controls
Excerpt: as §2, §3

Row | Compound | Post-emergence action against ALOMY in % (ALOMY [1]) [%] | Post-emergence action against LOLRI in % (LOLRI [2]) [%] | Post-emergence action against AVEFA in % (AVEFA [3]) [%] | Pre-emergence action against AVEFA in % (AVEFA [4]) [%] | Post-emergence action against DIGSA in % (DIGSA [5]) [%] | Pre-emergence action against SETVI in % (SETVI [6]) [%] | Post-emergence action against ECHCG in % (ECHCG [7]) [%] | Post-emergence action against SETVI in % (SETVI [8]) [%] | Pre-emergence action against DIGSA in % (DIGSA [9]) [%] | Pre-emergence herbicidal action against LOLRI in % (LOLRI [10]) [%] | Pre-emergence action against ECHCG in % (ECHCG [11]) [%] | Pre-emergence action against ALOMY in % (ALOMY [12]) [%]
1 | CC#Cc1cc(Br)c(C2=C(OC(=O)OCC)C3(CCC(COC)C3)NC2=O)c(OCC)c1 (centres unmarked) [Example P-90] | 100 | 100 | 80 | 100 | 90 | 100 | 100 | 100 | 100 | 100 | 100 | 100
2 | CC#Cc1cc(Br)c(C2=C(O)C3(CCC(COCC)C3)NC2=O)c(OCC)c1 (centres unmarked) [Example I-64] | 90 | 90 | 80 | 80 | 80 | 100 | 100 | 100 | 100 | 100 | 100 | 100
3 | CC#Cc1cc(F)c(C2=C(O)C3(CCC(COCCC)C3)NC2=O)c(OC)c1 (centres unmarked) [Example I-56] | 90 | 80 | 90 |  | 90 | 100 | 100 | 100 | 100 | 100 | 100 | 80
4 | CC#Cc1cc(C)c(C2=C(O)C3(CCC(COC)C3)NC2=O)c(F)c1 (centres unmarked) [Example I-34] | 100 | 100 | 90 |  | 100 | 100 | 100 | 100 | 100 | 100 |  | 
5 | CC#Cc1cc(F)c(C2=C(O)C3(CCC(COCCC)C3)NC2=O)c(OC)c1 (centres unmarked) [Example I-57] |  | 80 |  |  | 90 | 100 | 100 | 100 | 100 | 100 | 100 | 100
6 | C=CCOCC1CCC2(C1)NC(=O)C(c1c(F)cc(C#CC)cc1OC)=C2OC(=O)OCC (centres unmarked) [Example P-78] | 100 |  |  |  | 90 | 100 | 100 | 100 | 100 | 100 | 100 | 100
7 | C=CCOCC1CCC2(C1)NC(=O)C(c1c(C)cc(C#CC)cc1OC)=C2OC(=O)OCC (centres unmarked) [Example P-68] | 100 | 90 | 90 |  | 90 | 100 | 100 | 100 | 100 | 100 | 100 | 100
8 | CC#Cc1cc(Br)c(C2=C(OC(=O)OCC)C3(CCC(COC)C3)NC2=O)c(OCC)c1 (centres unmarked) [Example P-94] |  | 90 |  | 100 | 80 | 100 | 100 | 100 | 100 | 100 | 100 | 100
9 | CC#Cc1cc(Br)c(C2=C(OC(=O)C(C)C)C3(CCC(COC)C3)NC2=O)c(CC)c1 (centres unmarked) [Example P-45] |  |  |  |  |  | 80 |  |  |  |  |  | 
10 | CC#Cc1cc(C)c(C2=C(O)C3(CCC(COCC)C3)NC2=O)c(F)c1 (centres unmarked) [Example I-37] | 100 | 90 | 100 |  | 100 | 100 | 100 | 100 | 90 | 100 | 100 | 80
11 | CC#Cc1cc(F)c(C2=C(O)C3(CCC(COCC)C3)NC2=O)c(OC)c1 (centres unmarked) [Example I-43] | 100 | 90 | 90 | 100 |  | 100 | 100 | 100 | 100 | 100 | 100 | 100
12 | C=CCOCC1CCC2(C1)NC(=O)C(c1c(F)cc(C#CC)cc1OC)=C2O (centres unmarked) [Example I-54] | 100 | 90 |  | 80 |  | 100 | 100 | 100 | 100 | 100 | 100 | 100
